Literature values as cited in patent US9714271B2 (ContraVir Pharmaceuticals, Inc., priority 2010, dated 2017).

Molecular target: CyP-A (Homo sapiens, UniProt P62937)
Sequence (P62937 whole entry): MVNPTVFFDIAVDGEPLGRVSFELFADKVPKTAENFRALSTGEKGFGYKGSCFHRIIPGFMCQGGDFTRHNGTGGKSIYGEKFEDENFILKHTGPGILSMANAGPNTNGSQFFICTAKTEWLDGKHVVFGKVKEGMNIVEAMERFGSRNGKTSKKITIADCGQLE

binding affinity for CyP-A | Structure (SMILES)
retains binding affinity for CyP-A | C/C=C/C[C@@H](C)[C@@H](O)[C@H]1C(=O)N[C@@H](CC)C(=O)N(C)[C@H](C)C(=O)N(CC)[C@@H](C(C)C)C(=O)N[C@@H](C(C)C)C(=O)N(C)[C@@H](CC(C)C)C(=O)N[C@@H](C)C(=O)N[C@H](C)C(=O)N(C)[C@@H](CC(C)C)C(=O)N(C)[C@@H](CC(C)C)C(=O)N(C)[C@@H](C(C)C)C(=O)N1C [DEBIO 025, MeAla^3EtVal^4-Cyclosporin]
retains binding affinity for CyP-A | C/C=C/C[C@@H](C)[C@@H](O)[C@H]1C(=O)N[C@@H](CC)C(=O)N(C)[C@H](SCCN(C)C)C(=O)N(C)[C@@H](CC(C)(C)O)C(=O)N[C@@H](C(C)C)C(=O)N(C)[C@@H](CC(C)C)C(=O)N[C@@H](C)C(=O)N[C@H](C)C(=O)N(C)[C@@H](CC(C)C)C(=O)N(C)[C@@H](CC(C)C)C(=O)N(C)[C@@H](C(C)C)C(=O)N1C [SCY-635, DimethylaminoethylthioSar^3-hydroxyLeu^4-Cyclosporin]

Structure (SMILES) | binding affinity for CyP-A
C/C=C/C[C@@H](C)[C@@H](O)[C@H]1C(=O)N[C@@H](CC)C(=O)N(C)CC(=O)N(C)[C@@H]([C@@H](C)CC)C(=O)N[C@@H](C(C)C)C(=O)N(C)[C@@H](CC(C)C)C(=O)N[C@@H](C)C(=O)N[C@H](C)C(=O)N(C)[C@@H](CC(C)C)C(=O)N(C)[C@@H](CC(C)C)C(=O)N(C)[C@@H](C(C)C)C(=O)N1C [NIM 811, Melle^4-Cyclosporine] | retains binding affinity for CyP-A
